In BindingDB's records for doi:10.1016/j.bmcl.2003.09.074 (Eli Lilly, 2003):
*1 amine or outer side, *2 acyl side, *3 side chain or, on linkers, in order; H or OH if unused. Where a SMILES comes first, the peptide text is derived from it. [ ]: non-standard residue; d: D form. The star is where a group is joined. Pro(3S,4R-(CH2)3) = O=C(O)[C@H]1NC[C@@H]2CCC[C@@H]21; Pyrazinecarbonyl = O=C(c1cnccn1)*; X1 = CCCC(N[*:1])C(=O)C(=O)[*:2]

Columns and labels:
[1] = Binding affinity towards Protease using PNA assay in rats
[2] = Cytotoxic activity against Protease in […] Huh-7 cells
[3] = as above; remark: listed apart in the source
[4] = Cytotoxic activity against Protease in […] Huh-7 cells at 100 uM concentration

## CCCC(NC(=O)[C@@H]1[C@H]2CC[C@H](F)[C@H]2CN1C(=O)[C@@H](NC(=O)[C@@H](NC(=O)c1cnccn1)C(C)C)C(C)C)C(=O)C(=O)NC1CC1 (stereo partly drawn) [(1S,5S,6R)-4-Fluoro-2-((S)-3-methyl-2-{(S)-3-methyl-2-[(pyrazine-2-carbonyl)-amino]-butyrylamino}-butyryl)-octahydro-cyclopenta[c]pyrrole-1-carboxylic acid ((S)-1-cyclopropylaminooxalyl-butyl)-amide]
[1]
  Ki: 300 nM
[2]
  IC50: > 100000 nM

## CCCC(NC(=O)C1[C@H]2CCC(=O)[C@H]2CN1C(=O)[C@@H](NC(=O)[C@@H](NC(=O)c1cnccn1)C(C)C)C(C)C)C(=O)C(=O)NC1CC1 (stereo partly drawn) [(5S,6R)-2-((S)-3-Methyl-2-{(S)-3-methyl-2-[(pyrazine-2-carbonyl)-amino]-butyrylamino}-butyryl)-4-oxo-octahydro-cyclopenta[c]pyrrole-1-carboxylic acid (1-cyclopropylaminooxalyl-butyl)-amide]
[1]
  Ki: 510 nM
[2]
  IC50: > 100000 nM

## CCCC(NC(=O)[C@@H]1[C@H]2CC=C[C@H]2CN1C(=O)[C@@H](NC(=O)[C@@H](NC(=O)c1cnccn1)C(C)C)C(C)C)C(=O)C(=O)N[C@@H](C)CC (stereo partly drawn) [(1S,5S,6R)-2-((S)-3-Methyl-2-{(S)-3-methyl-2-[(pyrazine-2-carbonyl)-amino]-butyrylamino}-butyryl)-1,2,3,3a,6,6a-hexahydro-cyclopenta[c]pyrrole-1-carboxylic acid [1-((S)-sec-butylaminooxalyl)-butyl]-amide]
[1]
  Ki: 625 nM

## CCCC(NC(=O)[C@@H]1[C@H]2CCC[C@H]2CN1C(=O)[C@@H](NC(=O)[C@@H](NC(=O)c1cnccn1)C(C)C)C(C)C)C(=O)C(=O)N[C@@H](Cc1ccccc1)C(=O)O (stereo partly drawn) [2-(3-{[(1S,5S,6R)-2-((S)-3-Methyl-2-{(S)-3-methyl-2-[(pyrazine-2-carbonyl)-amino]-butyrylamino}-butyryl)-octahydro-cyclopenta[c]pyrrole-1-carbonyl]-amino}-2-oxo-hexanoylamino)-3-phenyl-propionic acid] (Pyrazinecarbonyl-VV[Pro(3S,4R-(CH2)3)][X1]F-OH)
[1]
  Ki: 68 nM
[2]
  IC50: > 100000 nM

## CCCC(NC(=O)[C@@H]1[C@H]2CC[C@H](F)[C@H]2CN1C(=O)[C@@H](NC(=O)[C@@H](NC(=O)c1cnccn1)C(C)C)C(C)C)C(=O)C(=O)N[C@@H](C)c1ccccc1 (stereo partly drawn) [(1S,5S,6R)-4-Fluoro-2-((S)-3-methyl-2-{(S)-3-methyl-2-[(pyrazine-2-carbonyl)-amino]-butyrylamino}-butyryl)-octahydro-cyclopenta[c]pyrrole-1-carboxylic acid [(S)-1-((S)-1-phenyl-ethylaminooxalyl)-butyl]-amide]
[1]
  Ki: 315 nM

## CCCC(NC(=O)[C@@H]1[C@H]2CC=C[C@H]2CN1C(=O)[C@@H](NC(=O)[C@@H](NC(=O)c1cnccn1)C(C)C)C(C)C)C(=O)C(=O)NC1CC1 (stereo partly drawn) [(1S,5S,6R)-2-((S)-3-Methyl-2-{(S)-3-methyl-2-[(pyrazine-2-carbonyl)-amino]-butyrylamino}-butyryl)-1,2,3,3a,6,6a-hexahydro-cyclopenta[c]pyrrole-1-carboxylic acid (1-cyclopropylaminooxalyl-butyl)-amide]
[1]
  Ki: 90 nM
[2]
  IC50: > 100000 nM

## CCCC(NC(=O)[C@@H]1[C@H]2CCC(F)(F)[C@H]2CN1C(=O)[C@@H](NC(=O)[C@@H](NC(=O)c1cnccn1)C(C)C)C(C)C)C(=O)C(=O)N[C@@H](Cc1ccccc1)C(=O)O (stereo partly drawn) [(S)-2-(3-{[(1S,5S,6R)-4,4-Difluoro-2-((S)-3-methyl-2-{(S)-3-methyl-2-[(pyrazine-2-carbonyl)-amino]-butyrylamino}-butyryl)-octahydro-cyclopenta[c]pyrrole-1-carbonyl]-amino}-2-oxo-hexanoylamino)-3-phenyl-propionic acid]
[3]
  IC50: > 100000 nM
[1]
  Ki: 176 nM

## CCCC(NC(=O)[C@@H]1[C@H]2CC=C[C@H]2CN1C(=O)[C@@H](NC(=O)[C@@H](NC(=O)c1cnccn1)C(C)C)C(C)C)C(=O)C(=O)N[C@@H](C)c1ccccc1 (stereo partly drawn) [(1S,5S,6R)-2-((S)-3-Methyl-2-{(S)-3-methyl-2-[(pyrazine-2-carbonyl)-amino]-butyrylamino}-butyryl)-1,2,3,3a,6,6a-hexahydro-cyclopenta[c]pyrrole-1-carboxylic acid [1-((S)-1-phenyl-ethylaminooxalyl)-butyl]-amide]
[1]
  Ki: 880 nM

## CCCC(NC(=O)[C@@H]1[C@H]2CC[C@@H](OCOC)C2CN1C(=O)[C@@H](NC(=O)[C@@H](NC(=O)c1cnccn1)C(C)C)C(C)C)C(=O)C(=O)NC1CC1 (stereo partly drawn) [(1S,5S)-4-Methoxymethoxy-2-((S)-3-methyl-2-{(S)-3-methyl-2-[(pyrazine-2-carbonyl)-amino]-butyrylamino}-butyryl)-octahydro-cyclopenta[c]pyrrole-1-carboxylic acid ((R)-1-cyclopropylaminooxalyl-butyl)-amide]
[1]
  Ki: 415 nM
[2]
  IC50: > 100000 nM

## CCCC(NC(=O)[C@@H]1[C@H]2CC[C@H](F)[C@H]2CN1C(=O)[C@@H](NC(=O)[C@@H](NC(=O)c1cnccn1)C(C)C)C(C)C)C(=O)C(=O)N[C@@H](Cc1ccccc1)C(=O)O (stereo partly drawn) [(S)-2-((S)-3-{[(1S,5S,6R)-4-Fluoro-2-((S)-3-methyl-2-{(S)-3-methyl-2-[(pyrazine-2-carbonyl)-amino]-butyrylamino}-butyryl)-octahydro-cyclopenta[c]pyrrole-1-carbonyl]-amino}-2-oxo-hexanoylamino)-3-phenyl-propionic acid]
[3]
  IC50: > 100000 nM
[1]
  Ki: 82 nM

## CCCC(NC(=O)C1[C@H]2CCC(=O)[C@H]2CN1C(=O)[C@@H](NC(=O)[C@@H](NC(=O)c1cnccn1)C(C)C)C(C)C)C(=O)C(=O)Nc1ccccc1 (stereo partly drawn) [(3aR,5S)-2-((S)-3-Methyl-2-{(S)-3-methyl-2-[(pyrazine-2-carbonyl)-amino]-butyrylamino}-butyryl)-4-oxo-octahydro-cyclopenta[c]pyrrole-1-carboxylic acid (1-phenylaminooxalyl-butyl)-amide]
[1]
  Ki: 17 nM
[2]
  IC50: > 100000 nM

## CCCC(NC(=O)[C@@H]1[C@H]2CCC(F)(F)[C@H]2CN1C(=O)[C@@H](NC(=O)[C@@H](NC(=O)c1cnccn1)C(C)C)C(C)C)C(=O)C(=O)NC1CC1 (stereo partly drawn) [(1S,5S,6R)-4,4-Difluoro-2-((S)-3-methyl-2-{(S)-3-methyl-2-[(pyrazine-2-carbonyl)-amino]-butyrylamino}-butyryl)-octahydro-cyclopenta[c]pyrrole-1-carboxylic acid (1-cyclopropylaminooxalyl-butyl)-amide]
[1]
  Ki: 370 nM
[2]
  IC50: > 100000 nM

## CCCC(NC(=O)[C@@H]1[C@H]2CC[C@@H](OCOC)C2CN1C(=O)[C@@H](NC(=O)[C@@H](NC(=O)c1cnccn1)C(C)C)C(C)C)C(=O)C(=O)N[C@@H](C)c1ccccc1 (stereo partly drawn) [(1S,5S)-4-Methoxymethoxy-2-((S)-3-methyl-2-{(S)-3-methyl-2-[(pyrazine-2-carbonyl)-amino]-butyrylamino}-butyryl)-octahydro-cyclopenta[c]pyrrole-1-carboxylic acid [(R)-1-((S)-1-phenyl-ethylaminooxalyl)-butyl]-amide]
[1]
  Ki: 332 nM
[4]
  IC50: 33000 nM
